{"source": "paper PMC10154249", "about": "“Unique progerin C-terminal peptide ameliorates Hutchinson–Gilford progeria syndrome phenotype by rescuing BUBR1” (Nature Aging, 2023)", "key": {"[1]": {"test_system": "SAC signal response (p-H3)", "assay": "Western blot of p-H3 (SAC signal response), nocodazole-treated HGADFN003 cells", "assay_type": "cell-based, human", "settings": "nocodazole 200 ng ml^–1 with UPCP", "method": "Western blot was performed as previously described. Cells were lysed in 1× Laemmli sample buffer after washing twice in cold PBS without calcium and magnesium. Protein concentrations were determined using the bicinchoninic acid (BCA) protein assay. Protein lysates were subjected to SDS–PAGE, transferred to 0.45-μm pore size hydrophobic PVDF transfer membrane (Merck Millipore), detected with the appropriate primary antibodies coupled with horseradish peroxidase-conjugated corresponding secondary antibodies, and visualized using enhanced chemiluminescence ECL reagent (GE Healthcare). The Tanon 5500 high-definition low-illumination CCD system (Tanon FLI Capture v.1.02) was used to capture chemiluminescent signals."}, "[2]": {"test_system": "IMR90 cells", "assay": "CCK8 cell viability of IMR90 cells", "assay_type": "cell-based, human", "settings": "CCK8, UPCP 0, 10, 20, 30 μM, 0–72 h (also Ki67, CyclinA2, survival rate)", "method": "Cell viability was assessed using the Cell Counting Kit-8 (CCK8) (APE, catalog no. k1018). The cells were plated in triplicate in 96-well plates (typically 10,000 cells per 100 μl per well) and were incubated with fresh medium for 24 h. Then, the cells were incubated with different concentrations (0 μM, 10 μM, 20 μM, 30 μM) of UPCP for 0 h, 24 h, 48 h or 72 h. CCK8 solution (10 μl) was added to the well for a 2 h incubation at 37 °C. Absorbance was measured at 450 nm with a 96-well plate reader (Tecan Infinite M NANO^+). Data were analyzed and further processed in i-control v.2.0 and GraphPad Prism v.7."}, "[3]": {"test_system": "BUBR1 promoter", "assay": "Luciferase assay of BUBR1 promoter in HEK-293T cells", "assay_type": "cell-based", "settings": "for Relative luciferase activity of BUBR1 promoter (UPCP/Mock): Fig. 4b, HEK293T, Mock = 1, P=0.684", "method": "The experiments were performed as described previously. The BUBR1 (–1,200 to +100) promoter or the DNA fragment of BUBR1 mRNA 3′-UTR was inserted into the pGL4.20 vector. Cells were plated in 24-well plates. After 24 h, cells were cotransfected with 200 ng of the indicated firefly luciferase reporter plasmid and 50 ng of Renilla luciferase normalization control plasmid using PEI. At 48 h after transfection, cell lysates were collected to measure luciferase activity using the Dual-Luciferase Reporter Assay System (Promega, catalog no. E1910) according to the manufacturer’s instructions. Luciferase reporter assay was carried out on an TD-20/20 Turner Designs luminometer, data were analyzed and further processed in Microsoft Excel and GraphPad Prism v.7."}, "[4]": {"test_system": "HGADFN003 cells", "assay": "Ki67 immunofluorescence of HGADFN003 cells", "assay_type": "cell-based, human", "settings": "for Relative percentage of Ki67 positive cells: Fig. 5b, Mock 32, 39, 45, P=0.0148; for Ki67 positive cells: HGADFN003, Extended Data Fig. 10e", "method": "Immunofluorescence was performed as described previously. Cells were plated on cover slips in 12-well plates, left overnight before the treatment. Cells were fixed in 1% formaldehyde in culture medium for 10 min at 37 °C and permeabilized with 0.2% Triton X-100 in PBS for 10 min at room temperature. Cells were washed twice in PBS and blocked for 1 h with 5% BSA in PBS and then incubated with primary antibodies at 4 °C overnight, washed three times in PBS and incubated with secondary antibodies for 1 h at room temperature. Cell nuclei were counterstained with a 500 nM concentration of 4,6-diamidino-2-phenylindole (DAPI) (Sigma). Images were acquired by a fluorescence microscope (OLYMPUS FV-1000, Carl Zeiss LSM880 or Leica DMi8) and analyzed with software NIS-Elements AR v.5.0.1 (Nikon), FLUOVIEW v.4.2b (OLYMPUS), ZEN v.2.3 SP1 (Carl Zeiss) and Leica Application Suite X v.3.6.0.24 (Leica). Cells were quantified by investigators who were blinded to the identity of the analyzed cell."}}, "note": "“Also recorded” adds a separate entry of the source."}
{"substance": "H-YGRKKRRQRRRYNLRSRTVLCGTCGQPADKASASGSGAQSPQNCSIM-OH (cysteines drawn unpaired) [UPCP, unique progerin C-terminal peptide]", "values": [{"measurement": "SAC signal response (p-H3)", "setting": "[1]", "result": "repaired the SAC signal response"}, {"measurement": "effect on proliferation of normal cells", "setting": "[2]", "result": "had little effect on proliferation of IMR90 cells; also recorded: no obvious effect on the proliferation of normal cells"}, {"measurement": "Relative luciferase activity of BUBR1 promoter (UPCP/Mock)", "setting": "[3]; replicate 1", "result": 0.9458}, {"measurement": "Relative luciferase activity of BUBR1 promoter (UPCP/Mock)", "setting": "[3]; replicate 2", "result": 1.36}, {"measurement": "Relative luciferase activity of BUBR1 promoter (UPCP/Mock)", "setting": "[3]; replicate 3", "result": 0.8889}, {"measurement": "luciferase activity of the BUBR1 promoter", "setting": "[3]; HEK-293T cells", "result": "failed to enhance luciferase activity of the BUBR1 promoter"}, {"measurement": "Relative percentage of Ki67 positive cells", "setting": "[4]; HGADFN003, replicate 1", "result": 54, "unit": "%"}, {"measurement": "Relative percentage of Ki67 positive cells", "setting": "[4]; HGADFN003, replicate 2", "result": 62, "unit": "%"}, {"measurement": "Relative percentage of Ki67 positive cells", "setting": "[4]; HGADFN003, replicate 3", "result": 68, "unit": "%"}, {"measurement": "Ki67 expression (FTI-277/UPCP comparison, words)", "setting": "[4]; HGADFN003", "result": "increasing expression of BUBR1, CyclinA2 and Ki67"}, {"measurement": "Ki67 positive cells", "setting": "[4]; replicate 1", "result": 65, "unit": "%"}, {"measurement": "Ki67 positive cells", "setting": "[4]; replicate 2", "result": 55, "unit": "%"}, {"measurement": "Ki67 positive cells", "setting": "[4]; replicate 3", "result": 72, "unit": "%"}, {"measurement": "Ki67 positive staining", "setting": "[4]; HGPS cells", "result": "increased Ki67 positive staining"}]}
